Test results as given in article PMC4254748 (Science (New York, N.Y.), 2014).

How the values were obtained:
[1] = tested on: yeast heterozygous and homozygous deletion strains; experiment: HIP/HOP chemogenomic fitness profiling; assay type: cell-based; conditions: for Chemogenomic response signature induced: HIPHOP profile
[2] = tested on: immortalized human leukemia cells; experiment: Mitochondrial effects in immortalized human leukemia cells; assay type: cell-based; conditions: fig. S13
neo1Δ/NEO1 strain = experiment: Growth of the neo1Δ/NEO1 strain; assay type: cell-based, yeast; conditions: OD600 for 24 hours

OC(Cn1cncn1)(Cn1cncn1)c1ccc(F)cc1F [fluconazole]
HIP hit / strain with largest fitness defect ([1]; HIP profile): Erg11Δ/ERG11 strain represents a “hit”

Oc1ccc(Cl)cc1Cc1cc(Cl)cc(Cc2cc(Cl)ccc2O)c1O [trichlorophene]
Generation of mitochondrial reactive oxygen species [2]: increased | Reserve oxygen capacity [2]: reduction | Chemogenomic response signature induced [1]: induced mitochondrial stress

CO/C1=C\C(C)=C\[C@@H](C)[C@@H](O)[C@@H](C)C/C(C)=C/C=C/[C@H](OC)[C@@H]([C@@H](C)[C@@H](O)[C@H](C)[C@@]2(O)C[C@@H](O)[C@H](C)[C@@H](C(C)C)O2)OC1=O [bafilomycin A]
Effect on tamoxifen-induced NEO1 haploinsufficiency (neo1Δ/NEO1 strain): rescued

CCCCNC(=O)n1c(NC(=O)OC)nc2ccccc21 [benomyl]
Chemogenomic response signature induced [1]: induced a signature containing tubulin biogenesis and SWR1 complex genes

CC/C(=C(\c1ccccc1)c1ccc(OCCN(C)C)cc1)c1ccccc1 [Tamoxifen]
Induction of NEO1 haploinsufficiency (neo1Δ/NEO1 strain): Tamoxifen-induced NEO1 haploinsufficiency

COC(=O)Nc1nc2ccc(C(=O)c3cccs3)cc2[nH]1 [nocodazole]
Chemogenomic response signature induced [1]: induced a signature containing tubulin biogenesis and SWR1 complex genes
